Assay results reported in US4570006A, “Amidine compound, process for producing same and anti-complement agent comprising same” (Torii & Co. Ltd., priority 1981, dated 1986).

Tests used:
complement = assay: Inhibition of complement mediated hemolysis; assay type: cell-based
Experimental: The complement mediated hemolysis is widely used as a means to determine the titration of complement. The principle of this method is based on the fact that hemolysis if caused by the activation of complement, when the latter is added to a complex (immune complex) of erythrocytes and the antibody thereof. The degree of hemolysis varies in proportion to the amount of complement added. Therefore, when a known amount of complement admixed with a Cl esterase inhibitor is used, the hemolysis must be suppressed in proportion to the inhibitory activity.
The anti-Cl esterase (Clr, Cls) activity was determined according to the method of Okamura et al. [K. Okamura, M. Muramatsu and B. Fujii, Biochem. Biophys. […] The figures in Table 2 have the following meanings: […]

Clr = biological target: T1, Clr (Homo sapiens, UniProt P00736); assay: Anti-Cl esterase activity, Clr (AAME hydrolysis); assay type: biochemical; settings: hydrolysis of AAME; read-out: Anti-Cl activity, Clr (ID50)
T1 sequence (P00736 464-705 limits assumed): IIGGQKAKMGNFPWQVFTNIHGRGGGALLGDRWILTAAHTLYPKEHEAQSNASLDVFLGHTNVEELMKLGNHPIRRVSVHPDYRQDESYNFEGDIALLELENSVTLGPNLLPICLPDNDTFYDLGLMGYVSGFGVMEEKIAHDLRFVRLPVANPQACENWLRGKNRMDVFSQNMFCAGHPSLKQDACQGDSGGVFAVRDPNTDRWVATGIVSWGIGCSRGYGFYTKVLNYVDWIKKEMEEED
T1 sequence (P00736 18-463 limits assumed): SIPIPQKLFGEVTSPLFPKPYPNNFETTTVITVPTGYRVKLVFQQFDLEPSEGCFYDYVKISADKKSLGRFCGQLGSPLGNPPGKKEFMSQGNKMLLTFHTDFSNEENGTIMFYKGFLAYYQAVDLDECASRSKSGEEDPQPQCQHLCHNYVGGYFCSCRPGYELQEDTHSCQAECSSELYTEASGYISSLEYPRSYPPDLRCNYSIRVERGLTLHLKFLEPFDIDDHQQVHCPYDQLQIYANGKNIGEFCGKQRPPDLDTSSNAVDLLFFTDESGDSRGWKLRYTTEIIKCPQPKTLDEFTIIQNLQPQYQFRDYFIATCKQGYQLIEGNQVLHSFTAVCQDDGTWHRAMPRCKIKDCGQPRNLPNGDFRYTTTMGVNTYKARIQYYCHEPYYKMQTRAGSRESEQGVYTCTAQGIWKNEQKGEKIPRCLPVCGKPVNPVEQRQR
Experimental: The anti-Cl esterase ([…]) activity was determined according to the method of Okamura et al. [K. Okamura, M. Muramatsu and B. Fujii, Biochem. Biophys.

Plasmin = Plasmin (Homo sapiens, UniProt P00747); assay: Anti-plasmin activity (inhibition of TAME hydrolysis); assay type: biochemical; settings: read-out: ID50, plasmin
Experimental: (§1) The anti-trypsin, anti-plasmin, anti-kallikrein and anti-thrombin activities were determined according to the method of Muramatsu et al. [M. Muramatsu, T. Onishi, S. Makino, Y. Hayashi and S. Fujii, J. of Biochem., 58, 214 (1965)]. The data summarized in Table 1 are expressed in terms of molar concentration (ID50) of the test compound which inhibits 50% of the activity of each enzyme to hydrolyze TAME (tosylarginine methyl ester). The compound No. corresponds to the compound number shown in Examples.

Trypsin = biological target: T2, Trypsin (Bos taurus, UniProt P00760); assay: Anti-trypsin activity (inhibition of TAME hydrolysis); assay type: biochemical; settings: read-out: ID50, trypsin
T2 sequence (P00760 24-246): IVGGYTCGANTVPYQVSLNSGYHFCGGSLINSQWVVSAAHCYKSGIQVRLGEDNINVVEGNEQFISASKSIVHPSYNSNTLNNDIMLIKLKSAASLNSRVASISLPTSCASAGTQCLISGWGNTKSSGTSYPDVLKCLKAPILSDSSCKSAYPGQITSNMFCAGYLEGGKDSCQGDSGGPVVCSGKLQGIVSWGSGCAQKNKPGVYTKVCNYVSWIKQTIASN
Experimental: as §1

Kallikrein = assay: Anti-kallikrein activity (inhibition of TAME hydrolysis); assay type: biochemical; settings: read-out: ID50, kallikrein
Experimental: as §1

Thrombin = Thrombin (Homo sapiens, UniProt P00734); assay: biochemical; settings: TAME hydrolysis; read-out: ID50, thrombin
Cls = biological target: T3, Cls (Homo sapiens, UniProt P09871); assay: Anti-Cl esterase activity, Cls (ATEE hydrolysis); assay type: biochemical; settings: hydrolysis of ATEE; read-out: Anti-Cl activity, Cls (50% inhibition)
T3 sequence (P09871 438-688 limits assumed): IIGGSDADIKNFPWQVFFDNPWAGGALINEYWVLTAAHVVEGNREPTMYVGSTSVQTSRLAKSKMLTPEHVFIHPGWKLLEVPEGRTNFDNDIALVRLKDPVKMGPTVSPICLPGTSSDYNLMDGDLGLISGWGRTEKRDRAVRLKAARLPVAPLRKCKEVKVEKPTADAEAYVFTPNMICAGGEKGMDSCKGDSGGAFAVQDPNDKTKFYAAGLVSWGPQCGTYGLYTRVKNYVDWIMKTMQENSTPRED
T3 sequence (P09871 16-437 limits assumed): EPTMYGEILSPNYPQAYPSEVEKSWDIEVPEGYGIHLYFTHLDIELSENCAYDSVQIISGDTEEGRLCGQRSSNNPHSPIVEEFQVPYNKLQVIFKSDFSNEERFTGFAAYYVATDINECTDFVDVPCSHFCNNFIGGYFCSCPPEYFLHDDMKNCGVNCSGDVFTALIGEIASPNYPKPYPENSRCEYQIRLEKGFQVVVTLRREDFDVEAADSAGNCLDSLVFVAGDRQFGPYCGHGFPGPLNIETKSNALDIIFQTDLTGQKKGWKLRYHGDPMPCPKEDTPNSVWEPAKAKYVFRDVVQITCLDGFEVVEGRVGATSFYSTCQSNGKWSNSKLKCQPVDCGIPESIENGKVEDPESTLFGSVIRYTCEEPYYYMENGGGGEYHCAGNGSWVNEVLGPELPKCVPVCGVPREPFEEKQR
Experimental: The anti-Cl esterase (Clr, Cls) activity was determined according to the method of Okamura et al. [K. Okamura, M. Muramatsu and B. Fujii, Biochem. Biophys. […] The figures in Table 2 have the following meanings:
Cls: Molar concentration of the test compound which inhibits 50% of the ability of Cls to hydrolyse ATEE (acetyltyrosin ethyl ester).

Plasmin, sequence (P00747 581-810 limits assumed, species assumed): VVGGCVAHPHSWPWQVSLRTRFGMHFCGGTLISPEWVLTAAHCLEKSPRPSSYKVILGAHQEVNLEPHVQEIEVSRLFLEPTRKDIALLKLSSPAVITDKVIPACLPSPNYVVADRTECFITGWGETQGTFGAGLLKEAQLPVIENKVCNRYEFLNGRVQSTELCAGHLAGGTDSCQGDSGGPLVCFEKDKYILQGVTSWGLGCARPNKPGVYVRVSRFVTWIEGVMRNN
Plasmin, sequence (P00747 97-580 limits assumed, species assumed): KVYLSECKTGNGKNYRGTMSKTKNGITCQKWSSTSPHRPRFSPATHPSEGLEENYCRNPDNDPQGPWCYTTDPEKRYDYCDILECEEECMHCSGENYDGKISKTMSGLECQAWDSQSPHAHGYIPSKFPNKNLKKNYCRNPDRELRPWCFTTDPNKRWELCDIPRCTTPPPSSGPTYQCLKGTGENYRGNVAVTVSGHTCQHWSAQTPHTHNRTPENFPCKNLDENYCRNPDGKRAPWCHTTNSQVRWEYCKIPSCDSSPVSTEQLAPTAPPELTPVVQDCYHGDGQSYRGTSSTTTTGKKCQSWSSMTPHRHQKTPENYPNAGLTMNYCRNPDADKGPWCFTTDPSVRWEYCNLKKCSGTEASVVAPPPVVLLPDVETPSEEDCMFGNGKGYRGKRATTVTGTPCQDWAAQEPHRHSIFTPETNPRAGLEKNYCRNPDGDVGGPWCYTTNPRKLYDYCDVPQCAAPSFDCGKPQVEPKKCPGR

SMILES	IC50 (Clr) [µM]	IC50 (Plasmin) [µM]	IC50 (Trypsin) [µM]	IC50 (Kallikrein) [µM]	IC50 (Thrombin) [µM]	IC50 (Cls) [µM]	Inhibition of complement mediated hemolysis (%) (complement; compound at 1 × 10^-4)	Inhibition of complement mediated hemolysis (%) (complement; compound at 1 × 10^-5)	Inhibition of complement mediated hemolysis (%) (complement; compound at 1 × 10^-6)	Inhibition of complement mediated hemolysis (%) (complement; compound at 1 × 10^-7)
COc1cc(C(=N)N)ccc1OC(=O)/C=C/c1ccccc1 [Compound 31, 4-amidino-2-methoxyphenyl cinnamate]	2	3	8	40	20	3	97.2	80.5	15.8	1.8
N=C(N)c1ccc(OC(=O)C=Cc2ccc3c(c2)OCO3)c([N+](=O)[O-])c1 [Compound 48]	> 10	0.2	2	8	0.4	3	94.0	94.8	75.3	23.2
COc1cc(C(=N)N)ccc1OC(=O)c1ccc(CN)cc1 [Compound 58, 4-amidino-2-methoxyphenyl 4-aminomethylbenzoate]	> 10	8	8	2	> 10	4	93.4	20.0	3.0	0
CC(C)(C)c1ccc(C(=O)Oc2ccc(C(=N)N)cc2[N+](=O)[O-])cc1 [Compound 38]	0.3	0.4	0.02	1	0.2	0.3	98.6	100	96.1	37.2
Cc1ccc(C(=O)Oc2ccc(C(=N)N)cc2[N+](=O)[O-])cc1 [Compound 37]	0.04	0.4	0.05	0.7	0.3	0.06	95.9	37.3	16.0	0
COC(=O)c1ccc(C(=O)Oc2ccc(C(=N)N)cc2C(=O)c2ccccc2)cc1 [Compound 50]	9	0.5	4	> 10	0.2	> 10	98.8	75.4	6.9	0
N=C(N)c1ccc(OC(=O)CCNC(=O)OCc2ccccc2)c(C(=O)c2ccccc2)c1 [Compound 10, 4-amidino-2-benzoylphenyl 3-benzyloxycarbonylaminopropionate]	> 10	> 10	> 10	> 10	2		95.9	80.3	17.0	2.3
COc1cc(C(=N)N)ccc1OC(=O)c1ccccc1 [Compound 23, 4-amidino-2-methoxyphenyl benzoate]	7	20	10	60	0.2	5				

The next lines start with results.

IC50 (Clr) [µM]	IC50 (Plasmin) [µM]	IC50 (Trypsin) [µM]	IC50 (Kallikrein) [µM]	IC50 (Thrombin) [µM]	IC50 (Cls) [µM]	SMILES	Inhibition of complement mediated hemolysis (%) (complement; compound at 1 × 10^-4)	Inhibition of complement mediated hemolysis (%) (complement; compound at 1 × 10^-5)	Inhibition of complement mediated hemolysis (%) (complement; compound at 1 × 10^-6)	Inhibition of complement mediated hemolysis (%) (complement; compound at 1 × 10^-7)
1	0.3	0.05	0.4	0.06	0.5	CC(=O)Nc1ccc(C(=O)Oc2ccc(C(=N)N)cc2C(=O)c2ccccc2)cc1 [Compound 56, 4-amidino-2-benzoylphenyl 4-acetylaminobenzoate]	99.1	98.1	88.1	20.4
> 10	0.3	10	5	1	0.8	COc1cc(C(=N)N)ccc1OC(=O)[C@H]1CC[C@H](CNC(=O)OCc2ccccc2)CC1 [Compound 16]	91.2	61.8	17.4	3.4
> 10	> 10	> 10	> 10	> 10	4	N=C(N)c1ccc(OC(=O)[C@H]2CC[C@H](CN)CC2)c(C(=O)c2ccccc2)c1 [Compound 21]	99.3	99.9	60.2	10.9
> 10	> 10	> 10	> 10	> 10		N=C(N)c1ccc(OC(=O)CCN)c(C(=O)c2ccccc2)c1 [Compound 11, 4-amidino-2-benzoylphenyl 3-aminopropionate]	17.4	2.5	2.5	3.5
1	0.2	0.03	0.4	< 0.01		CSc1ccc(C(=O)Oc2ccc(C(=N)N)cc2C(=O)c2ccccc2)cc1 [Compound 49]	83.8	94.6	97.5	75.1
